From publication PMC5560747, “Computational-experimental approach to drug-target interaction mapping: A case study on kinase inhibitors” (PLoS Computational Biology, 2017) come the findings set out here.

Among the targets are SRC (Homo sapiens, UniProt P12931); FYN A (Homo sapiens, UniProt P06241); BRK (Homo sapiens, UniProt Q13882).
Test in all cases: cell-free ADP-Glo Kinase Assay
Holding throughout (type): biochemical
Conditions in all cases: read-out: Experimental validation pIC50 (converted)

The target in a further assay is T1, AXL (Homo sapiens, UniProt P30530).
T1 sequence (P30530 26-894): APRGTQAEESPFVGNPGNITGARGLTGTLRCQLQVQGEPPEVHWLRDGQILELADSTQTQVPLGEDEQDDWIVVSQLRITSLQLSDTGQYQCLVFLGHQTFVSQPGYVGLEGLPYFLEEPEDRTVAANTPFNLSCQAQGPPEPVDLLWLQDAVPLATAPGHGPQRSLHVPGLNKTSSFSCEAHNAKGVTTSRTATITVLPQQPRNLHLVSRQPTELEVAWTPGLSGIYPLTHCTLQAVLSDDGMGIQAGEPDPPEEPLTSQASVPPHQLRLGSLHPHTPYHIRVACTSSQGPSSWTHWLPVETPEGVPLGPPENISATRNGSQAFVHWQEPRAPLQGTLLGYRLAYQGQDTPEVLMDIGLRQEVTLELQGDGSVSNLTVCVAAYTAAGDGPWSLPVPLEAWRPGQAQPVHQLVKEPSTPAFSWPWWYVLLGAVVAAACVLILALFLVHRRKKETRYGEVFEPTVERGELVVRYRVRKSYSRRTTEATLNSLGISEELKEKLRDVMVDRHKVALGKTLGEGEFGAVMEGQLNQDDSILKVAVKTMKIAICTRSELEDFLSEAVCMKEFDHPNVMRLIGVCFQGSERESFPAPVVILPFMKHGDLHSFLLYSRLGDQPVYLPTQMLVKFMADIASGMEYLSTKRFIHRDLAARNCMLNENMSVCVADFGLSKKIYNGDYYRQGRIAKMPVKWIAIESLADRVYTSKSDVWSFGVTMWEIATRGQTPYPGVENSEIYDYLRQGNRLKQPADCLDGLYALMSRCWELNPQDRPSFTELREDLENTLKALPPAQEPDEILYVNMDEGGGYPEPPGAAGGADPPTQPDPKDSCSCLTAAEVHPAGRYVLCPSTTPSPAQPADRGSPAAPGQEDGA

BRK, sequence (Q13882 whole entry): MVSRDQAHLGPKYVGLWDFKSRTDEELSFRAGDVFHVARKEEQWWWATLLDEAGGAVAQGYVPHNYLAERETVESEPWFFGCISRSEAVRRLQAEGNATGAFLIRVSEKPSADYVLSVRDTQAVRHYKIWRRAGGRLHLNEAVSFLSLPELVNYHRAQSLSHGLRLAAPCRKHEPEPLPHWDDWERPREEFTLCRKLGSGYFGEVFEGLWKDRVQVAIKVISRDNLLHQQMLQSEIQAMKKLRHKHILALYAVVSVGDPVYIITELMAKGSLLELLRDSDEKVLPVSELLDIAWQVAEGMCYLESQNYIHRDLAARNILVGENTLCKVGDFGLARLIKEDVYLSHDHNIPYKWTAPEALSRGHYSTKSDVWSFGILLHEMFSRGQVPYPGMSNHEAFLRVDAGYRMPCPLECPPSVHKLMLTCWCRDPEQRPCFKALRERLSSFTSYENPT
FYN A, sequence (P06241 whole entry): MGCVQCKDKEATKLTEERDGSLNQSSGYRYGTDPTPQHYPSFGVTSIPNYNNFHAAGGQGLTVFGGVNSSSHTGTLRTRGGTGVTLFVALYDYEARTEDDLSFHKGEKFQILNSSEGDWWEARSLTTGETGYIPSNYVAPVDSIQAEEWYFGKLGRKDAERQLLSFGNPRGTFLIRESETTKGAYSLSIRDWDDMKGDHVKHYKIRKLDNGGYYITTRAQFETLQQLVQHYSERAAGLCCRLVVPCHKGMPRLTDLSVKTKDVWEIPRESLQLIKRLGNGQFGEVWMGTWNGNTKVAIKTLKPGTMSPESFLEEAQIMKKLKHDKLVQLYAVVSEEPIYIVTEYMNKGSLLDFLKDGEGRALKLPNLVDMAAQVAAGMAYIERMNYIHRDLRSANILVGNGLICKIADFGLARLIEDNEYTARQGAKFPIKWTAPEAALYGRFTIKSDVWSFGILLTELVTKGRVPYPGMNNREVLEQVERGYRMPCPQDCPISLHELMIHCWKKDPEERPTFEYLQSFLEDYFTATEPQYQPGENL
SRC, sequence (P12931 whole entry): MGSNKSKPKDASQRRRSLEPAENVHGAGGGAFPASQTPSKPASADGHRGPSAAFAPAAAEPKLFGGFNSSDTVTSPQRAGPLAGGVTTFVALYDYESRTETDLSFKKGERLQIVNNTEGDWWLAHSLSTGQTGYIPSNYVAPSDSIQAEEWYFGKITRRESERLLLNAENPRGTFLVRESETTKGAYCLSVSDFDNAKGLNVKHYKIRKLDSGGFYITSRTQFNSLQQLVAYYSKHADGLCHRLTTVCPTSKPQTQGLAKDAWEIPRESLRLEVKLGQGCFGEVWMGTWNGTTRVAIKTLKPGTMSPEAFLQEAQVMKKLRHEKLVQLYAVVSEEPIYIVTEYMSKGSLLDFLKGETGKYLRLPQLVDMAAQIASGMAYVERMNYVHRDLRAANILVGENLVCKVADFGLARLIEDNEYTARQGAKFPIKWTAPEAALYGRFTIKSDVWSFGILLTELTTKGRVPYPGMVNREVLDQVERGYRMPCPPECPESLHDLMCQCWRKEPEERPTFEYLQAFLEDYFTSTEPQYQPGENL
Description for AXL: (§1) The kinase inhibitors were dissolved to 1X Kinase Buffer with 5% DMSO by transferring 200nL of the buffer using ECHO525 Liquid handler (Labcyte). […] The dissolved kinases and 2.5X kinase buffer controls were transferred at 400nL using ECHO525. […] The 2.5X ATP/substrate working stocks were transferred at 400nL using ECHO525.
(§2) For the ADP detection, 1 μl ADP-Glo reagent was dispensed (Thermo Scientific Multidrop Combi nL). […] Next, 2 μl kinase detection reagent was dispensed with Thermo Scientific Multidrop Combi nL.
(§3) The Kinase Selectivity Profiling System kit assays were performed at least in two individual experiments, each having two replicates.
(§4) IC50 values from all the experiments were obtained with GraphPad Prism 7 (GraphPad Software, Inc. California, USA) using inhibitor vs. response—variable slope (four parameters) analysis. […] X-axis scale was set to log10.
Description for BRK: as §1, §2, §3, §4
Description for FYN A: as §1, §2, §3, §4

For the compound `COc1cc2c(Oc3ccc4[nH]c(C)cc4c3F)ncnc2cc1OCCCN1CCCC1` [Cediranib], the IC50 on SRC was 724 nM; on AXL, 3090 nM; at FYN A, 135 nM; on BRK it was 166 nM.
